Patent US4242512A, “Novel thioamide derivatives containing a pyridazine group” (Morishita Pharmaceutical Co., Ltd., priority 1979, dated 1980)

Key:
[1] = system: aspirin-induced gastric ulcers in pylorus-ligated rats; experiment: Effect on aspirin-induced gastric ulcers in pylorus-ligated rats; assay type: in vivo; settings: for Inhibition (aspirin-induced gastric ulcers): 10 rats; for Inhibition (aspirin-induced gastric ulcers) / ED50: 7 hrs after aspirin 100 mg/kg p.o.; for Safety Margin LD50/ED50 (aspirin-induced ulcers): LD50 mice p.o. / ED50 pylorus-ligated rats i.d., Table 2; for ED50: Rattus norvegicus, i.d., pylorus-ligated rats
Method: (§1) As illustrative evidence of the remarkable high gastric antisecretory activity of the compounds of the invention, tests were conducted on, and comparisons made with, closely similar compounds in the prior art. The following Tables 2 and 3 show the results of such tests according to previously identified techniques from the literature.
Effect on aspirin-induced gastric ulcers in pylorus-ligated
Each drug was given […] intraduodenally (i.d.) immediately after pyloru
ligation in a volume of 0.5 ml/100 g of body weight. Animals were
sacrificed 7 hrs after aspirin (100 mg/kg, p.o.) administration.

Shay ulceration in rats = experiment: Effect on Shay ulceration in rats; assay type: in vivo; settings: for Inhibition (Shay ulceration): 10 rats; for Inhibition (Shay ulceration) / ED50: 13 hours after drug treatment; for Safety Margin LD50/ED50 (Shay ulceration): LD50 mice p.o. / ED50 Shay rats i.d., Table 3; for ED50: Rattus norvegicus, i.d., rats
Method: as §1
(§2) Effect on Shay ulceration in rats and acute toxicity in mice.
Each drug was given either intraduodenally (i.d.) immediately after
pylorus ligation in a volume of 0.5 ml/100 g of body weight. The animals
were sacrificed 13 hours after drug treatment.

Acute toxicity in mice = settings: mouse, in vivo, po, Table 2, read-out: LD50 (Table 2, head printed "50 (mg/kg) P.O. Orally")
Method: as §1
rats and acute toxicity in mice.
as §2

Structure (SMILES)	Inhibition (aspirin-induced gastric ulcers) ([1]; 10 mg/kg i.d.) [%]	Inhibition (aspirin-induced gastric ulcers) ([1]; 30 mg/kg i.d.) [%]	Safety Margin LD50/ED50 (aspirin-induced ulcers) [1]	ED50 [1] [mg/kg]	Inhibition (Shay ulceration) (Shay ulceration in rats; 10 mg/kg i.d.) [%]	Inhibition (Shay ulceration) (Shay ulceration in rats; 30 mg/kg i.d.) [%]	Safety Margin LD50/ED50 (Shay ulceration) (Shay ulceration in rats)	ED50 (Shay ulceration in rats) [mg/kg]	LD50 (Acute toxicity in mice) [mg/kg]
NC(=S)C(c1ccccc1)c1cccnn1 (stereo not drawn) [Ex. 1, 2-Phenyl-2-(3-pyridazinyl)thioacetamide]	48.6	97.7	85.12	11.5	33.3	95.8	78.40	12.5	980
Cc1ccc(C(C(N)=S)c2ccccc2)nn1 (stereo not drawn) [Ex. 2, 2-Phenyl-(6-methyl-3-pyridazinyl)thioacetomide]	3.2	89.0	80.95	21	50.0	91.7	154.54	11	1700
NC(=S)C(c1ccccc1)c1ncccn1 (stereo not drawn) [U.S. Pat. No. 3,624,085 Ex. 9]	22.3	74.0	64.86	18.5	28.2	65.0	46.15	26	1200
NC(=S)C(c1ccccc1)c1cnccn1 (stereo not drawn) [U.S. Pat. No. 3,624,085 Ex. 12]	15.4	50.8	30.80	30	18.3	57.7	33.00	28	924
CCC(C(N)=S)c1ccccn1 (stereo not drawn) [U.S. Pat. No. 3,686,190 Ex. 1]	11.3	45.7	12.88	52	12.0	46.5	17.70	34	670
